# From patent US9918479B2, “Control of phytopathogenic microorganisms with Pseudomonas sp. and substances and compositions derived therefrom” (priority 2012, dated 2018)
# Test system: CL145A (ATCC 55799)
# Test: Antibiotic resistance profile, antibiotic discs on Mueller-Hinton agar
# Conditions: 72 hours incubation
# Procedure: One glycerol stock vial of CL145A was equally distributed onto Mueller-Hinton Agar plates (100 μl per plate) and spread on the plate using a sterile cell spreader. Antibiotic discs were then placed onto the plates along with a blank sterile disc. Plates were incubated at 25° C. in the dark for 72 hours.
row,Compound,CL145A resistant or sensitive to the antibiotic (growth inhibited by the antibiotic disc)
1,CC1(C)S[C@@H]2[C@H](NC(=O)[C@H](N)c3ccccc3)C(=O)N2[C@H]1C(=O)O [Ampicillin],resistant
2,CO/N=C(\C(=O)N[C@@H]1C(=O)N2C(C(=O)O)=C(COC(N)=O)CS[C@H]12)c1ccco1 [Cefuroxime],resistant
3,O=C(N[C@H](CO)[C@H](O)c1ccc([N+](=O)[O-])cc1)C(Cl)Cl [Chloramphenicol],resistant
4,CC[C@H]1OC(=O)[C@H](C)[C@@H](O[C@H]2C[C@@](C)(OC)[C@@H](O)[C@H](C)O2)[C@H](C)[C@@H](O[C@@H]2O[C@H](C)C[C@H](N(C)C)[C@H]2O)[C@](C)(O)C[C@@H](C)C(=O)[C@H](C)[C@@H](O)[C@]1(C)O [Erythromycin],resistant
5,CCN1CCN(C(=O)N[C@@H](C(=O)N[C@@H]2C(=O)N3[C@@H]2SC(C)(C)[C@@H]3C(=O)O)c2ccccc2)C(=O)C1=O [Piperacillin],sensitive
6,[H]/N=C(/N)N[C@H]1[C@H](O)[C@@H](O)[C@H](O[C@@H]2O[C@@H](C)[C@](O)(C=O)[C@H]2O[C@@H]2O[C@@H](CO)[C@H](O)[C@@H](O)[C@@H]2NC)[C@@H](N/C(N)=N\[H])[C@@H]1O [Streptomycin],resistant
7,Gentamicin,sensitive
8,Penicillin,resistant
